≈ marks a conversion by molar mass, not a printed value. Where “and” joins values, the source holds several entries; their conditions need not be identical. Equal values may be shown once. Read-outs that look alike come from different tables or passages of the source.
Key:
B. subtilis [1] = assay: B. subtilis growth inhibition assay; type: cell-based, Bacillus subtilis
B. anthracis Sterne = type: cell-based, Bacillus anthracis; conditions: B. anthracis Sterne growth inhibition
S. aureus = S. aureus growth inhibition assay; type: cell-based, Staphylococcus aureus; conditions: for Sa ED50: S. aureus growth inhibition
Mycobacterium smegmatis = assay: M. smegmatis growth inhibition assay; type: cell-based
[2] = HEK293 cell growth inhibition assay; type: cell-based, human; conditions: human, HEK293 cells
HEK293 cells = assay: HEK293 cell growth inhibition assay; type: cell-based, human; conditions: for HEK 293: HEK293 cell growth inhibition ED50, 24 hr incubation; for HEK293 toxicity (ED50): 96 hours incubation
[3] = biological target: EcOPPS (E. coli octaprenyl diphosphate synthase) (Escherichia coli, UniProt P0AD57); assay: OPPS enzyme inhibition assay; type: biochemical; conditions: IC50 against EcOPPS
Sequence of EcOPPS (E. coli octaprenyl diphosphate synthase) (P0AD57 whole entry): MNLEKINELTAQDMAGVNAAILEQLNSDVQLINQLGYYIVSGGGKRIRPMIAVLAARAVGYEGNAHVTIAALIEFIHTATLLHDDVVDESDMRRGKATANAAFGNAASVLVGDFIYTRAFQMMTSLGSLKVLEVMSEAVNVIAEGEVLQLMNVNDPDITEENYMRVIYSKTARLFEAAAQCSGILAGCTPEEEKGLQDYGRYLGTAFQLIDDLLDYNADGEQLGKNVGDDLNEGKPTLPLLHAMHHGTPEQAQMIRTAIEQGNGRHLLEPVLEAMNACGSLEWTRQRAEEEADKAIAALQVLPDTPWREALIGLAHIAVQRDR

[4] = biological target: SaHepPPS (S. aureus heptaprenyl diphosphate synthase) (Staphylococcus aureus, UniProt Q2FYG6); assay: HepPPS enzyme inhibition assay; type: biochemical; conditions: IC50 against SaHepPPS
B. subtilis [5] = assay: B. subtilis serum binding assay; type: cell-based, Bacillus subtilis; conditions: for effect of serum on B. subtilis growth inhibition: 4% or 10% fetal bovine serum
[6] = biological target: T1, HsFPPS (human farnesyl diphosphate synthase) (Homo sapiens, UniProt P14324); assay: FPPS enzyme inhibition assay; type: biochemical
T1 sequence (P14324 1-419): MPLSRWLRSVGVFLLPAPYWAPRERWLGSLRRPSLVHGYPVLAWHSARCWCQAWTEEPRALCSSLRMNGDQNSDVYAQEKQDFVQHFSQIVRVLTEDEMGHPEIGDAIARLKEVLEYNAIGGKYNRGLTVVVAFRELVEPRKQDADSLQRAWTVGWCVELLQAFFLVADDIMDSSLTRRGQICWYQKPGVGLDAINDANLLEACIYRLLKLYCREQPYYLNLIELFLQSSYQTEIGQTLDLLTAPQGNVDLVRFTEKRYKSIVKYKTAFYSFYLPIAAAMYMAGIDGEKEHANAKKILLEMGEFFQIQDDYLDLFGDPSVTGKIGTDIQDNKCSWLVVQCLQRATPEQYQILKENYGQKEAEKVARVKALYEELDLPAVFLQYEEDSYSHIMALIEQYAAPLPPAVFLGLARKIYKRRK

B. subtilis [7] = assay: B. subtilis cell growth inhibition rescue assays; type: cell-based, Bacillus subtilis
EcUPPS = EcUPPS (Escherichia coli, UniProt P60472); assay: UPPS enzyme inhibition assay; type: biochemical, E. coli
Sequence of EcUPPS (P60472 whole entry): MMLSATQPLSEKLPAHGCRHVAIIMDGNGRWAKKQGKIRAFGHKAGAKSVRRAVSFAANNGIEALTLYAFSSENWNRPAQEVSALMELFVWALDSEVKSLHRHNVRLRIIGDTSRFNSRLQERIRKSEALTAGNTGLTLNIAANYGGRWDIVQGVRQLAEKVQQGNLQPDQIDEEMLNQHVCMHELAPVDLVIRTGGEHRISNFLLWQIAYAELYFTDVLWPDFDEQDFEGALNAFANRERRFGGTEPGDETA

B. subtilis [8] = conditions: cited from earlier work
P. aeruginosa FPPS = conditions: read-out: activity against P. aeruginosa FPPS; cited from earlier work
E. faecalis = conditions: cited from earlier work
E. faecium = conditions: cited from earlier work

Compound	Bs ED50 (B. subtilis [1]; value in parentheses) [µM]	Ba ED50 (B. anthracis Sterne) [µg/mL]	Ba ED50 (B. anthracis Sterne; value in parentheses) [µM]	Sa ED50 (S. aureus; value in parentheses) [µM]	Ms ED50 (Mycobacterium smegmatis; 48 hours) [µg/mL]	Ms ED50 (Mycobacterium smegmatis; value in parentheses) [µM]	HEK 293 (HEK293 cells) [µg/mL]	IC50 [3] [µM]	Bs ED50 (B. subtilis [1]; 12 hours) [µg/mL]	Sa ED50 (S. aureus) [µg/mL]	HEK293 toxicity (ED50) (HEK293 cells)	effect of serum on B. subtilis growth inhibition (B. subtilis [5])	also measured
CC(C)CCCC(C)CCOc1cc[n+](CC(P(=O)([O-])O)P(=O)(O)O)cc1 (stereo not shown) [Compound 84, Hydrogen (2-(4-((3,7-dimethyloctyl)oxy)pyridin-1-ium-1-yl)-1-phosphonoethyl) phosphonate]	14	2.5	5.9	66	150	350	420						IC50 [2]: ~1000 µM; HEK 293 (HEK293 cells; value in parentheses): 1000 µM
CCCCCCCCCCOc1ccc[n+](CC(P(=O)([O-])O)P(=O)(O)O)c1 (stereo not shown) [Compound 6]								~0.006					
CC(C)CCCC(C)CCCc1cc[n+](CC(P(=O)([O-])O)P(=O)(O)O)cc1 (stereo not shown) [Compound 80, Hydrogen(2-(4-(4,8-dimethylnonyl)pyridin-1-ium-1-yl)-1-phosphonoethyl) phosphonate]	7.4	2.2	5.2	50	7.2	17	295		3.1	21			IC50 [2]: ~1000 µM; HEK 293 (HEK293 cells; value in parentheses): 700 µM
O=P(O)(O)C(O)(Cc1cccc(-c2cccc3c2oc2ccccc23)c1)P(=O)(O)O [Compound 69]				19				~330					IC50 [4]: 1 to 2 µM
CC(C)CCCC(C)CCCc1ccc[n+](CC(P(=O)([O-])O)P(=O)(O)O)c1 (stereo not shown) [Compound 77, Hydrogen(2-(3-(4,8-dimethylnonyl)pyridin-1-ium-1-yl)-1-phosphonoethyl) phosphonate]	5.2	2.1	5.0	31	5.9	14	194		2.2	13	140 µM	no effect	
CC(C)CCCC(C)CCOc1ccc[n+](CC(P(=O)([O-])O)P(=O)(O)O)c1 (stereo not shown) [Compound 74, Hydrogen(2-(3-((3,7-dimethyloctyl)oxy)pyridin-1-ium-1-yl)-1-phosphonoethyl) phosphonate]	2.4	2.3	5.4	33	5.9	14	262			14	76 µM and ~ 70 µM	little effect	HEK293 toxicity (HEK293 cells; after 24 hrs): ~ 0.5 mM; IC50 [6]: 0.2 µM and ~0.2 µM; increase in ED50 for B. subtilis growth inhibition, rescue by HMBPP (B. subtilis [7]; 50 µM HMBPP): ~ 2 x; increase in ED50 for B. subtilis growth inhibition, rescue by MK-4 (B. subtilis [7]; 50 µM MK-4): ~ 5 x; inhibition of UPPS (EcUPPS): no inhibition
O=P(O)(O)C(O)(Cn1ccnc1)P(=O)(O)O [Compound 24, zoledronate]								< 1					
O=P([O-])(O)C(Cn1cc[n+](CCCc2ccc(F)c(F)c2)c1)P(=O)(O)O (stereo not shown) [Compound 72, reference compound]											13 µM		increase in ED50 with 10% serum (B. subtilis [5]; B. subtilis, 10% serum): 50%; activity against B. subtilis (B. subtilis [8]): > 100 µg/mL; IC50 (P. aeruginosa FPPS): 0.1 to 0.2 µM
CCCCCCCCCCCc1ccc[n+](CC(P(=O)([O-])O)P(=O)(O)O)c1 (stereo not shown) [Compound 76, Hydrogen (1-phosphono-2-(3-undecylpyridin-1-ium-1-yl)ethyl)phosphonate]	4.8	0.6	1.4	30	6.1	14	96		2.1	13	7.3 µM	no effect	
CCCCCCCCCCCCCCOc1cccc(O)c1C(=O)O [Compound 70]													IC50 (S. aureus; Staphylococcus aureus, read-out: IC50 for S. aureus cell growth inhibition): 19 µM; IC50 [4]: 1 to 2 µM; MIC E. faecalis cell growth (E. faecalis): 4 µg/mL (≈ 11.4 µM); MIC E. faecium cell growth (E. faecium): 4 µg/mL (≈ 11.4 µM)
